Laboratory results published in publication PMC5207538, “Substrates and Inhibitors of SAMHD1” (PLoS ONE, 2017).

Target: T1, SAMHD1 (Homo sapiens, UniProt Q9Y3Z3)
T1 construct: recombinant SAMHD1 with N-terminal GST tag
Experiment: TLC-based [γ-32P]-dTTP triphosphohydrolase kinetics; HPLC dGTP hydrolysis assay
Type: biochemical

T1 sequence (Q9Y3Z3 whole entry): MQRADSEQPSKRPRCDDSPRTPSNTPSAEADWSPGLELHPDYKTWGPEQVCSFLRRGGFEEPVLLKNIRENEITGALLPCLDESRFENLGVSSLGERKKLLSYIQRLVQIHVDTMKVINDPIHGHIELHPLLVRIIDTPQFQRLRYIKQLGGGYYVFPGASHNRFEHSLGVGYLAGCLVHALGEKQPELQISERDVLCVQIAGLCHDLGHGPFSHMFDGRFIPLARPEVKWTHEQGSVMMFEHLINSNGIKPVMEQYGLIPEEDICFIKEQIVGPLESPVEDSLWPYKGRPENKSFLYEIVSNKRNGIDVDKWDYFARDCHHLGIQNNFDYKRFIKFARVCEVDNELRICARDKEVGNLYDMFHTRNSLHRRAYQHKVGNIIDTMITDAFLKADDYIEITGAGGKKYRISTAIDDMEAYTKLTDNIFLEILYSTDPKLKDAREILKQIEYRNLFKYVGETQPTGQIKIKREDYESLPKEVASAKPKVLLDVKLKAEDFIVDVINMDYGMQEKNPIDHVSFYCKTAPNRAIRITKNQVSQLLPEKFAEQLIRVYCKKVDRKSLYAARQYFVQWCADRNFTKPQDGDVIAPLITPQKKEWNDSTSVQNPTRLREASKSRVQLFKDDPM

C[C@H]1[C@H](O)[C@@H](COP(=O)(O)OP(=O)(O)OP(=O)(O)O)O[C@H]1n1ccc(=O)[nH]c1=O [SMDU-TP]
Ki: 256 ± 70 µM
